From patent US12545735B2, “Anti-met antibodies, bispecific antigen binding molecules that bind met, and methods of use thereof” (REGENERON PHARMACEUTICALS, INC., priority 2016, dated 2026)

Columns and labels:
Type in all cases: cell-based, human
Hs746T cells [1] = assay: 6-day in vitro cytotoxicity assay (nuclear counts); details: 6-day treatment
Method: (§1) To determine the relative cell-killing potency of anti-MET antibody drug conjugates (ADCs) described herein, cell-killing assays were run on multiple cells lines expressing varying levels of endogenous MET.
(§2) To measure in vitro cytotoxicity of anti-MET ADCs, nuclear counts after a 3 or 6-day treatment with the ADCs was assessed. […] For cell viability curves, serially diluted ADCs, unconjugated antibodies, or free payloads were added to the cells at final concentrations ranging from 100 nM to 0.01 nM (based on toxin concentration) and incubated for 3 or 6 days at 37° C. in 5% CO2. Cells were subsequently treated with 3 ug/ml Hoechst 33342 nuclear stain (Invitrogen, #H3570) while being fixed with 4% formaldehyde. Images were acquired on the ImageXpress micro XL (Molecular Devices, Sunnyvale, Calif.) and nuclear counts were determined via MetaXpress image analysis software (Molecular Devices, Sunnyvale, Calif.). Background nuclear counts from cells treated with […] digitonin were subtracted from all wells and viability was expressed as a percentage of the untreated controls. IC50 values were determined from a four-parameter logistic equation over a 10-point response curve (GraphPad Prism). The untreated condition for each dose-response curve is also included in the analysis and is represented as the lowest dose.

T47D cells [2] = assay: 6-day in vitro cytotoxicity assay (nuclear counts); details: 6-day treatment
Method: as §1, §2

EBC-1 cells [3] = assay: 6-day in vitro cytotoxicity assay (nuclear counts); details: 6-day treatment
Method: as §1, §2

A549 cells [4] = assay: 6-day in vitro cytotoxicity assay (nuclear counts); details: 6-day treatment
Method: as §1, §2

NCI-H1993 cells = assay: 3-day in vitro cytotoxicity assay (nuclear counts); details: 3-day treatment
Method: as §1, §2

SNU-5 cells = assay: 3-day in vitro cytotoxicity assay (nuclear counts); details: 3-day treatment
Method: as §1, §2

MKN-45 cells = assay: 3-day in vitro cytotoxicity assay (nuclear counts); details: 3-day treatment
Method: as §1, §2

EBC-1 cells [5] = assay: 3-day in vitro cytotoxicity assay (nuclear counts); details: 3-day treatment
Method: as §1, §2

MDA-MB-231 cells = assay: 3-day in vitro cytotoxicity assay (nuclear counts); details: 3-day treatment
Method: as §1, §2

Hs746T cells [6] = assay: 3-day in vitro cytotoxicity assay (nuclear counts); details: 3-day treatment
Method: as §1, §2

J.RT3 cells = assay: 3-day in vitro cytotoxicity assay (nuclear counts); details: 3-day treatment
Method: as §1, §2

T47D cells [7] = assay: 3-day in vitro cytotoxicity assay (nuclear counts); details: 3-day treatment
Method: as §1, §2

U87MG cells = assay: 3-day in vitro cytotoxicity assay (nuclear counts); details: 3-day treatment
Method: as §1, §2

HEK293 cells = assay: 3-day in vitro cytotoxicity assay (nuclear counts); details: 3-day treatment
Method: as §1, §2

A549 cells [8] = assay: 3-day in vitro cytotoxicity assay (nuclear counts); details: 3-day treatment
Method: as §1, §2

[9] = tested on: MET pathway in NCI-H596 cells; assay: Immunoblot of MET and ERK phosphorylation, time course; details: HGF 50 ng/ml
Method: 250,000 NCI-H596 cells were seeded in a 12 well plate and cultured in RPMI Media supplemented with 10% FBS. […] The cells were subsequently incubated in 5% CO2 at 37° C. After 0, 2, 6 or 18 hours, cell lysates were prepared, protein content was normalized and immunoblot analysis was performed. MET phosphorylation and ERK phosphorylation were quantified with the ImageJ image processing program (T. Collins, BioTechniques 43: S25-S30, 2007). Phosphorylation levels were normalized to the Tubulin loading control and are expressed as fold change relative to control treatment.

[10] = tested on: MET (c-Met) in HEK293/SRE-Luc cells; assay: SRE-luciferase reporter bioassay, blocking of HGF-mediated MET activation; details: antibodies plus HGF ligand; result in words
From the text: (§3) The ability of anti-MET antibodies to block hepatocyte growth factor (HGF)-mediated MET activation was examined in a luciferase-based reporter assay. The growth factor HGF binds to the extracellular domain of its receptor c-Met (MET), triggering rapid homodimerization and activating several downstream signaling cascades. The anti-MET antibodies tested in this example were bivalent monospecific binders of MET, or anti-MET “bispecifics”, in which each arm of the bispecific antibody bound to a different and distinct epitope on MET. […]
(§4) Next, 2.0×10^5 HEK293/SRE-Luc cells were seeded in luciferase assay media in 96 well plates and incubated overnight at 37° C. in 5% CO2. […] Separately, the ability of the antibodies to activate c-Met in the absence of ligand was also assessed.
(§5) Luciferase activity was detected using the ONE-Glo™ Luciferase Assay System (Promega, Madison, Wis.), and emitted light was measured on a Victor or Envision luminometer (Perkin Elmer, Shelton, Conn.) and expressed as relative light units (RLUs). EC50/IC50 values were determined from a four-parameter logistic equation over a 12-point response curve using […] […]

[11] = tested on: MET (c-Met) in HEK293/SRE-Luc cells; assay: SRE-luciferase reporter bioassay, ligand (HGF)-independent MET activation; details: antibody alone at various concentrations; result in words
From the text: as §3, §4, §5

COc1cc2cc(c1Cl)N(C)C(=O)CC(OC(=O)C(C)N(C)C(=O)CCSSC)C1(C)OC1C(C)C1CC(O)(NC(=O)O1)C(OC)C=CC=C(C)C2 (centres unmarked) [DM1 (MeS-DM1)]
IC50 (Hs746T cells [1]): 1.39 nM | Max % Kill (Hs746T cells [1]): 88% | IC50 (T47D cells [2]): 0.24 nM | Max % Kill (T47D cells [2]): 96% | IC50 (EBC-1 cells [3]): 0.12 nM | Max % Kill (EBC-1 cells [3]): 62% | IC50 (A549 cells [4]): 0.49 nM | Max % Kill (A549 cells [4]): 90% | IC50 (NCI-H1993 cells): 2.86 nM | Max % Kill (NCI-H1993 cells): 81% | IC50 (SNU-5 cells): 1.22 nM | Max % Kill (SNU-5 cells): 99% | IC50 (MKN-45 cells): 2.73 nM | Max % Kill (MKN-45 cells): 85% | IC50 (EBC-1 cells [5]): 2.22 nM | Max % Kill (EBC-1 cells [5]): 90%

COc1cc2cc(c1Cl)N(C)C(=O)CC(OC(=O)C(C)N(C)C(=O)CCS)C1(C)OC1C(C)C1CC(O)(NC(=O)O1)C(OC)C=CC=C(C)C2 (centres unmarked) [DM1 (free drug)]
IC50 (MDA-MB-231 cells): 1.53 nM | Max % Kill (MDA-MB-231 cells): 89% | IC50 (Hs746T cells [6]): 1.46 nM | Max % Kill (Hs746T cells [6]): 81% | IC50 (J.RT3 cells): 0.07 nM | Max % Kill (J.RT3 cells): 100% | IC50 (T47D cells [7]): 1.33 nM | Max % Kill (T47D cells [7]): 91% | IC50 (U87MG cells): 0.61 nM | Max % Kill (U87MG cells): 89% | IC50 (HEK293 cells): 0.15 nM | Max % Kill (HEK293 cells): 95% | IC50 (A549 cells [8]): 2.56 nM | Max % Kill (A549 cells [8]): 97%

CNCCC(=O)N(C)C(C)C(=O)OC1CC(=O)N(C)c2cc(cc(OC)c2Cl)CC(C)=CC=CC(OC)C2(O)CC(OC(=O)N2)C(C)C2OC12C (centres unmarked) [M24 (Maytansinoid B released payload)]
IC50 (Hs746T cells [1]): > 100 nM | Max % Kill (Hs746T cells [1]): 10% | IC50 (T47D cells [2]): > 100 nM | Max % Kill (T47D cells [2]): 0% | IC50 (EBC-1 cells [3]): > 100 nM | Max % Kill (EBC-1 cells [3]): 32% | IC50 (A549 cells [4]): > 100 nM | Max % Kill (A549 cells [4]): 10%

HGF: hepatocyte growth factor, the MET ligand / MET-agonist [reference compound]
time of peak activation of MET and ERK [9]: 2 h

monovalent anti-MET antibody: monovalent MET antibody generated using the heavy and light chain variable sequences of MetMab (U.S. Pat. No. 7,892,550 B2) [reference compound]
blocking of HGF-dependent MET activation (SRE-luciferase, FIG. 3B, FIG. 4B) [10]: showed greater HGF blocking | MET agonist activity in the absence of HGF ligand (SRE-luciferase, FIG. 3A, FIG. 4A) [11]: neither the monovalent nor the MET×MET bispecific antibody showed MET agonist activity
